This is an account of results in US20240327463A1, “ANTIBACTERIAL PRODUCTS” (priority 2017, published 2024).

One assay has as its system S. aureus ATCC 29213. Put plainly: Mice-eye model of S. aureus keratitis. Format: in vivo. As to conditions: for mean corneal thickness: 0.3% topical, baseline 93.8±2.9 μm. The text has this: The in vivo efficacy of Compound 26 in the mice-eye model of S. aureus keratitis was examined. S. aureus is one of the major etiological agents for bacterial keratitis and the toxic secretions produced by this microorganism have been implicated in corneal melt, leading to significant morbidity and vision loss. […] A total of 8 doses were applied and the progression of the infection was monitored by slit lamp examination, anterior segment optical coherent tomography (AS-OCT) and microbiological enumeration of the bacterial bioburden. Mice cornea treated with PBS had severe clinical presentation indicated by chemosis, significant presence of hypopyon like materials and corneal infiltrates (FIG. 4).

A further assay has as its system MRSA ATCC 33591. The settings on record: ATCC 33591. The procedure:
(§1) For MIC testing all peptides were dissolved in DMSO (according to the method of L. L. Ling, et al., Nature 2015, 517, 455-459). Bacteria were grown on Mueller Hinton broth (oxoid). All incubations were at 37° C. Dilutions were carried out using Mueller Hinton. 100 μl of autoclaved Mueller Hinton broth was added to wells 2-12 on a 96-well plate. 200 μl of the peptide was added to well one at a concentration of 512 μg/ml. 100 μl of peptide in well one was taken up and pipetted into well two. The mixture was then mixed via pipetting before 100 μl was taken up and pipetted into well three. This process was repeated up to well 11. […] This was repeated three times. The 96-well plates were then incubated for 24 hours. The MIC was determined to be the lowest concentration at which there was no growth visible.

In assay [1] the test system is Staphylococcus aureus ATCC 29213. Put plainly: microbe, parasite or virus in culture. As to conditions: ATCC 29213. The procedure: as §1
Another assay relates to M. smegmatis ATCC 607. Put plainly: microbe, parasite or virus in culture. The settings on record: ATCC 607. The procedure: as §1
The subject of the next assay is VRE ATCC 700802. Put plainly: microbe, parasite or virus in culture. As to conditions: ATCC 700802. On the procedure: as §1
In a further assay the test system is MRSA DM21455 (eye). Put plainly: microbe, parasite or virus in culture. The settings on record: DM21455 (eye). The procedure:
as §1

The subject of the next assay is VRE ATCC 29212. Put plainly: microbe, parasite or virus in culture. The settings on record: ATCC 29212. On the procedure: as §1
In a further assay the test system is MRSA DR 42412 (sputum). Put plainly: microbe, parasite or virus in culture. The settings on record: DR 42412 (sputum). On the procedure: as §1
Another assay concerns MRSA ATCC 700699. Put plainly: microbe, parasite or virus in culture. The settings on record: ATCC 700699. On the procedure: as §1

SMILES strings stand for the structures. In brackets after ≈: the same amount, converted by molar mass. A value given as a limit tells only on which side of the number the result lay.

Regarding `COc1c(N2C[C@@H]3CCCN[C@@H]3C2)c(F)cc2c(=O)c(C(=O)O)cn(C3CC3)c12` [moxifloxacin, reference compound], the mean corneal thickness is on record as 124.2±9.4 μm in the assay with S. aureus ATCC 29213 (24 h post treatment) and 140.3±10.3 μm with S. aureus ATCC 29213 (48 h post treatment). Also, in the assay on S. aureus ATCC 29213 (corneal tissues harvested after 8 dosages, ± standard error of the mean), the “mean log10 CFU/tissue” value was determined as 3.7±0.24 log10 CFU/tissue.

In the case of `CC[C@@H](C)[C@@H](NC(=O)[C@@H](CCC(N)=O)NC(=O)[C@H](CO)NC(=O)[C@@H](NC(=O)[C@@H](Cc1ccccc1)NC)[C@@H](C)CC)C(=O)N[C@H](C(=O)N[C@@H](CO)C(=O)N[C@H]1C(=O)N[C@@H](C)C(=O)N[C@@H](CC(C)C)C(=O)N[C@@H]([C@@H](C)CC)C(=O)O[C@H]1C)[C@@H](C)CC` [Compound 19, Leu10-teixobactin], the “MIC (MRSA*)” value in the assay on MRSA ATCC 33591 worked out at 0.25 mg/L (≈ 0.208 µM). For the same compound, the MBC was 0.125 mg/L (≈ 0.104 µM) in assay [1], at most 0.0625 mg/L against MRSA DM21455 (eye), at most 0.0625 mg/L in the assay with MRSA DR 42412 (sputum) and 2 mg/L (≈ 1.66 µM) with MRSA ATCC 700699. The MIC is at most 0.0625 mg/L in assay [1]; 1 mg/L (≈ 0.832 µM) against M. smegmatis ATCC 607; 0.25 mg/L (≈ 0.208 µM) in the assay on VRE ATCC 700802; at most 0.0625 mg/L against MRSA DM21455 (eye); 0.25 mg/L (≈ 0.208 µM) against VRE ATCC 29212; at most 0.0625 mg/L against MRSA DR 42412 (sputum). This compound also registered an MIC in the assay with MRSA ATCC 700699 of 0.25 mg/L (≈ 0.208 µM).

With `CC[C@@H](C)[C@@H](NC(=O)[C@@H](CCC(N)=O)NC(=O)[C@H](CO)NC(=O)[C@@H](NC(=O)[C@@H](Cc1ccccc1)NC)[C@@H](C)CC)C(=O)N[C@H](C(=O)N[C@@H](CO)C(=O)N[C@H]1C(=O)N[C@@H](C)C(=O)N[C@@H]([C@@H](C)CC)C(=O)N[C@@H]([C@@H](C)CC)C(=O)O[C@H]1C)[C@@H](C)CC` [Compound 18, Ile10-teixobactin], in the assay on MRSA ATCC 33591, the “MIC (MRSA*)” value worked out at 0.25 mg/L (≈ 0.208 µM). Further, the MBC is 0.125 mg/L (≈ 0.104 µM) in [1], 0.125 mg/L (≈ 0.104 µM) with MRSA DM21455 (eye), at most 0.0625 mg/L in the assay with MRSA DR 42412 (sputum) and 1 mg/L (≈ 0.832 µM) against MRSA ATCC 700699. Moreover, the MIC in [1] was at most 0.0625 mg/L; in the assay on M. smegmatis ATCC 607, 0.5 mg/L (≈ 0.416 µM); in the assay with VRE ATCC 700802 it was at most 0.0625 mg/L; in the assay on MRSA DM21455 (eye) it was at most 0.0625 mg/L; with VRE ATCC 29212, at most 0.0625 mg/L; against MRSA DR 42412 (sputum) it was at most 0.0625 mg/L. The same compound came in with an MIC in the assay with MRSA ATCC 700699 of 0.25 mg/L (≈ 0.208 µM).
